Key:
[1] = test system: anti-etofenprox antibody I (E-antibody I); assay: Indirect competitive ELISA employing E-antibody I; assay type: binding, rabbit; details: inhibition rate relative to etofenprox at its IC50 concentration (=100%); antibody 1/40,000, 50% methanol
Procedure: 1. To a 96-well polystyrene microtiter plate, a solution of the conjugate between rabbit serum albumin (RSA) and the haptenic compound (I) dissolved in a coating buffer solution [10 mM phosphate buffer solution (pH 7.5), 100 mM NaC1] to give […] was added as an antigen at a ratio of 0.1 ml/well, followed by incubation at 4° C. overnight, whereby the antigen was adsorbed on the plate. After the excess solution was drained, a 3% solution of skim milk was added to the wells at a ratio of 0.3 ml/well, followed by incubation at 25° C. for one hour. The plate was washed thrice with a washing buffer [10 mM phosphate buffer solution (pH 7.2), 0.8% NaC1, 0.02% KCl, 0.02% "Tween 20"], whereby an antigen-coated plate was obtained.
2. The E-antibody I was diluted 20,000-fold with a diluting buffer [10 mM phosphate buffer solution (pH 7.5), 0.8% NaCl, 0.02% KCl] and was then mixed with a solution of etofenprox in methanol at a ratio of 1:1 to give an antibody concentration and a methanol concentration, both in the resulting solution, of 1/40,000 and 50%, respectively. The solution was reacted by incubation at 25° C. for one hour. The reaction mixture was added to the antigen-coated plate at a rate of 0.1 ml/well, followed by the reaction at 25° C. for one hour. The plate was then washed thrice with the washing buffer.
3. A conjugate between horseradish peroxidase and anti-rabbit IgG goat IgG (a second antibody) was diluted 10,000-fold with the washing buffer. The diluted conjugate was added to the antigen-coated plate at a rate of 0.1 ml/well, followed by incubation at 25° C. for one hour. The plate was washed thrice with the washing buffer.
4. To the antigen-coated plate, a chromogenic solution of o-phenylenediamine [0.2% (v/v) o-phenylenediamine and 100 mM phosphate-citrate buffer solution [pH 5.0, 0.003% (v/v) hydrogen peroxide] was added in an amount of 0.2 ml/well, followed by incubation at 25° C. for 10 minutes. The enzymatic reaction was then terminated by adding 4N sulfuric acid to the plate by at a rate of 0.05 ml/well. The absorbances at 492 nm and 630 nm were thereafter measured, respectively. According to this method, etofenprox concentrations ranging from 10 ng/ml to 10,000 ng/ml were successfully measured.
A solution of each of various pyrethroid compounds in methanol (having a concentration of 2-20,000 ng/ml) was mixed with a solution of the E antibody I, which had been diluted 20,000-fold with a diluting buffer, at a ratio of 1:1, followed by incubation at 25° C. for one hour.
Using the reaction mixture, measurement was conducted by the ELISA method as described in Example 8. The absorbance of the reaction mixture which had been obtained without addition of any pyrethroid compound is designated as 100%. The concentration of etophenprox. which inhibited 50% of the absorbance is designated as IC50 concentration. The inhibition rates of other pyrethroid compounds when the inhibition rate of ethophenprox at IC50 concentration is designated as 100% are shown as cross reactivity in Table 1.

[2] = test system: anti-etofenprox antibody II (E-antibody II); assay: Indirect competitive ELISA employing E-antibody II; assay type: binding, rabbit; details: inhibition rate relative to etofenprox at its IC50 concentration (=100%); antibody 1/80,000, 20% methanol
Procedure: The ELISA method employing E-antibody II, on the other hand, will be described next. As the antigen, a 0.01 μg/ml solution of the conjugate between the haptenic compound (II) and RSA was employed. An E-antibody II solution, which had been diluted 64,000-fold, and a methanol solution of etofenprox were mixed at a ratio of 4:1 to give an antibody concentration and methanol concentration, each in the resulting solution, of 1/80,000 and 20%, respectively. The resulting solution was then reacted. As a second antibody, antirabbit IgG goat IgG in the form of a 5000-fold dilution was employed. In a similar manner to the above ELISA method, etofenprox concentrations ranging from 3 ng/ml to 1,000 ng/ml were successfully measured.
In addition, solutions of each of various pyrethroid compounds in methanol (concentration: 5-50,000 ng/ml) were each mixed with an E antibody II solution, which had been diluted 64,000-fold, at a ratio of 1:4, followed by incubation at 25° C. for one hour. The reaction mixture was treated as described in Example 8 and its cross reactivity was obtained.
The inhibition rates of other pyrethroid compounds when the inhibition rate of ethophenprox at IC50 concentration is designated as 100% are also shown as cross reactivity in Table 1.

| Compound | Cross reactivity (%) E antibody I [1] [%] | Cross reactivity (%) E antibody II [2] [%] |
| --- | --- | --- |
| CC1(C)[C@H](C(=O)OCc2coc(Cc3ccccc3)c2)[C@@H]1/C=C1\CCSC1=O [Kadethrin, kadethrin] | 62 | 164 |
| CCOc1ccc(C(C)(C)CCCc2ccc(F)c(Oc3ccccc3)c2)cc1 [MTI-800, 1-(3-phenoxy-4-fluorophenyl)-4-(4-ethoxyphenyl)-4-methylpentane] | 54 | 34 |
| C=CCC1=C(C)C(OC(=O)C2C(C=C(C)C)C2(C)C)CC1=O (stereo not shown) [Allethrin, allethrin] | 46 | 54 |
| CC1(C)C(/C=C(\Cl)C(F)(F)F)C1C(=O)OC(C#N)c1cccc(Oc2ccccc2)c1 (stereo not shown) [Cyhalothrin, cyhalothrin] | 92 | 36 |
| CC(C)=CC1C(C(=O)OCc2coc(Cc3ccccc3)c2)C1(C)C (stereo not shown) [Resmethrin, resmethrin] | 74 | 85 |
| CC(C)[C@H](C(=O)OC(C#N)c1cccc(Oc2ccccc2)c1)c1ccc(OC(F)F)cc1 (stereo partly shown) [Flucythrinate, flucythrinate] | 126 | 60 |
| CCOc1ccc(C(C)(C)CCCc2cccc(Oc3ccccc3)c2)cc1 [MTI-790, 1-(3-phenoxyphenyl)-4-(4-ethoxyphenyl)-4-methylpentane] | 23 | 37 |
| CC(C)C(C(=O)OC(C#N)c1cccc(Oc2ccccc2)c1)c1ccc(Cl)cc1 (stereo not shown) [Fenvarerate, fenvarerate] | 47 | 50 |
| CCOc1ccc([Si](C)(C)OCc2cccc(Oc3ccccc3)c2)cc1 [SSI-116, dimethyl-(4-ethoxyphenyl)-(3-phenoxybenzyloxy)silane] | 70 | 103 |
| CCOc1ccc(C2(C(=O)OC(C#N)c3cccc(Oc4ccccc4)c3)CC2(Cl)Cl)cc1 (stereo not shown) [Cycloprothrin, cycloprothrin] | 103 | 54 |
| CCOc1ccc([Si](C)(C)CCCc2ccc(F)c(Oc3ccccc3)c2)cc1 [Silafluofen, silafluofen] | 57 | 32 |
| CC1(C)C(C(=O)OC(C#N)c2cccc(Oc3ccccc3)c2)C1(C)C (stereo not shown) [Fenpropathrin, fenpropathrin] | 136 | 48 |
| CC1(C)[C@H](C(=O)O[C@H](C#N)c2cccc(Oc3ccccc3)c2)[C@@H]1C(Br)C(Br)(Br)Br (stereo partly shown) [Tralomethrin, tralomethrin] | 116 | 67 |
| Cc1c(COC(=O)C2C(C=C(Cl)C(F)(F)F)C2(C)C)cccc1-c1ccccc1 (stereo not shown) [Biphenthrin, biphenthrin] | 86 | 81 |
| CC(C)(COCc1cccc(Oc2ccccc2)c1)c1ccc(OC(F)(F)Br)cc1 [Halfenprox, halfenprox] | 85 | 75 |
| CCOc1ccc(C(COCc2cccc(Oc3ccc(Cl)cc3)c2)C(F)(F)F)cc1 (stereo not shown) [Flufenprox] | 108 | 74 |
| CC(C)[C@H](Nc1ccc(C(F)(F)F)cc1Cl)C(=O)OC(C#N)c1cccc(Oc2ccccc2)c1 (stereo partly shown) [Fluvalinate, fluvalinate] | 70 | 23 |

Reference: patent US5608104A, “Immunological detection method of pyrethroid compound, haptenic compound, intermediate for the haptenic compound, immunogen and antibody” (Mitsui Toatsu Chemicals, Inc., priority 1993, dated 1997)
